Patent publication US20060069132A1, “Azolecarboxamide herbicides” (priority 2004, published 2006)

Experiments:
barnyardgrass [1] = assay: Test B pre-/postemergence herbicide test; format: in vivo, Echinochloa crus-galli; details: for Plant response rating, Barnyardgrass: preemergence; for Barnyardgrass plant response rating: postemergence, visual rating, scale 0 (no effect) to 100 (complete control)
In short: (§1)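 Test chemicals in a non-phytotoxic solvent mixture with surfactant were applied preemergence to seeded species and postemergence to plants 2-18 cm tall (1- to 4-leaf stage); rice and barnyardgrass were also tested in a flooded paddy at the 2-leaf stage. Visual rating versus controls after 13-15 days in greenhouse, scale 0 (no effect) to 100 (complete control).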

ducksalad = assay: Test B flooded paddy test; format: in vivo, Heteranthera limosa; details: 1000 g ai/ha, visual rating, scale 0 to 100 (0 no effect, 100 complete control), 13 to 15 days
In short: (§2)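 Paddy species grown to the 2-leaf stage under flooding; blackgrass sprayed postemergence at 2–18 cm (1- to 4-leaf stage). Plants kept in a greenhouse for 13 to 15 days, then visually rated against controls on 0 (no effect) to 100 (complete control).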

pigweed = assay: Test B pre-/postemergence herbicide test; format: in vivo, Amaranthus retroflexus; details: for Plant response rating, Pigweed: preemergence; for Pigweed plant response rating: postemergence, visual rating, scale 0 (no effect) to 100 (complete control)
In short: (§3)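 Visual rating, 0 (no effect) to 100 (complete control), versus untreated controls after 13–15 d in greenhouse. Pre- and postemergence applications (postemergence plants 2–18 cm, 1–4 leaves); flooded paddy arm at 2-leaf stage. Compounds in non-phytotoxic solvent plus surfactant.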

barnyardgrass [2] = assay: Test B flooded paddy test; format: in vivo, Echinochloa crus-galli; details: 1000 g ai/ha, visual rating, scale 0 to 100 (0 no effect, 100 complete control), 13 to 15 days
In short: as §2

rice [3] = assay: Test B pre-/postemergence herbicide test; format: in vivo, Oryza sativa; details: 500 g ai/ha; visual rating 0-100, 0 no effect, 100 complete control; preemergence
In short: as §3

Surinam grass = assay: Test B pre-/postemergence herbicide test; format: in vivo, Urochloa decumbens; details: for Plant response rating, Surinam Grass: preemergence; for Surinam Grass plant response rating: postemergence, visual rating, scale 0 (no effect) to 100 (complete control)
In short: as §3

blackgrass = assay: Test B postemergence herbicide test; format: in vivo, Alopecurus myosuroides; details: postemergence, visual rating, scale 0 (no effect) to 100 (complete control)
In short: as §2

lambsquarters = assay: Test B pre-/postemergence herbicide test; format: in vivo, Chenopodium album; details: for Plant response rating, Lambsquarters: preemergence; for Lambsquarters plant response rating: postemergence, visual rating, scale 0 (no effect) to 100 (complete control)
In short: as §3

morningglory [4] = assay: Test A pre-/postemergence herbicide test; format: in vivo, Ipomoea spp.
In short: (§4)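 Pre: seeded sandy loam, directed soil spray, compound in non-phytotoxic solvent + surfactant. Post: 1–2-leaf plants (2–10 cm), sprayed to runoff. Greenhouse ~10 d; visual injury vs untreated, 0–100 scale.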

wild oat = assay: Test B postemergence herbicide test; format: in vivo, Avena fatua; details: postemergence, visual rating, scale 0 (no effect) to 100 (complete control)
In short: (§5)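 Scale 0–100: zero equals no visible effect, 100 complete control, judged by eye relative to controls. Timing: 13 to 15 days in greenhouse post-treatment. Growth stage at spraying: two leaves (paddy) or one to four leaves, 2–18 cm (postemergence).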

velvetleaf [5] = assay: Test A pre-/postemergence herbicide test; format: in vivo, Abutilon theophrasti
In short: as §4

barnyardgrass [6] = assay: Test A pre-/postemergence herbicide test; format: in vivo, Echinochloa crus-galli
In short: as §4

giant foxtail [7] = assay: Test B pre-/postemergence herbicide test; format: in vivo, Setaria faberi; details: for Plant response rating, Foxtail, Giant: preemergence; for Foxtail, Giant plant response rating: postemergence, visual rating, scale 0 (no effect) to 100 (complete control)
In short: as §3

velvetleaf [8] = assay: Test B pre-/postemergence herbicide test; format: in vivo, Abutilon theophrasti; details: for Plant response rating, Velvetleaf: preemergence; for Velvetleaf plant response rating: postemergence, visual rating, scale 0 (no effect) to 100 (complete control)
In short: as §3

redroot pigweed = assay: Test A pre-/postemergence herbicide test; format: in vivo, Amaranthus retroflexus
In short: as §4

[9] = tested on: small flower umbrella sedge; assay: Test B flooded paddy test; format: in vivo, Cyperus difformis; details: 1000 g ai/ha, visual rating, scale 0 to 100 (0 no effect, 100 complete control), 13 to 15 days
In short: as §2

large crabgrass [10] = assay: Test B pre-/postemergence herbicide test; format: in vivo, Digitaria sanguinalis; details: for Plant response rating, Crabgrass, Large: preemergence; for Crabgrass, Large plant response rating: postemergence, visual rating, scale 0 (no effect) to 100 (complete control)
In short: as §3

giant foxtail [11] = assay: Test A pre-/postemergence herbicide test; format: in vivo, Setaria faberi
In short: as §4

rice [12] = assay: Test B flooded paddy test; format: in vivo, Oryza sativa; details: 1000 g ai/ha, visual rating, scale 0 to 100 (0 no effect, 100 complete control), 13 to 15 days
In short: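 Read-out: visual comparison with controls, scored 0 to 100, where 100 means complete control and 0 no effect. Formulated chemicals were applied postemergence to plants 2–18 cm tall (1- to 4-leaf), or to flooded-paddy plants at the 2-leaf stage, then held 13 to 15 days under glass.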

cocklebur = assay: Test B pre-/postemergence herbicide test; format: in vivo, Xanthium strumarium; details: for Plant response rating, Cocklebur: preemergence; for Cocklebur plant response rating: postemergence, visual rating, scale 0 (no effect) to 100 (complete control)
In short: as §1

morningglory [13] = assay: Test B pre-/postemergence herbicide test; format: in vivo, Ipomoea coccinea; details: for Plant response rating, Morningglory: preemergence; for Morningglory plant response rating: postemergence, visual rating, scale 0 (no effect) to 100 (complete control)
In short: as §1

corn = assay: Test B pre-/postemergence herbicide test; format: in vivo, Zea mays; details: for Plant response rating, Corn: preemergence; for Corn plant response rating: postemergence, visual rating, scale 0 (no effect) to 100 (complete control)
In short: as §3

wheat = assay: Test B postemergence herbicide test; format: in vivo, Triticum aestivum; set-up: key to Wheat plant response rating: 0 = no effect, 100 = complete control; details: postemergence, visual rating, scale 0 (no effect) to 100 (complete control)
In short: as §5

large crabgrass [14] = assay: Test A pre-/postemergence herbicide test; format: in vivo, Digitaria sanguinalis
In short: as §4

[15] = 500 g ai/ha, visual rating 0-100, 0 no effect, 100 complete control
[16] = 125 g ai/ha, 0 to 100 scale, 0 is no effect, 100 is complete control
[17] = Postemergence, 250 g ai/ha, 0 to 100 scale, 0 no effect, 100 complete control
[18] = Postemergence, 1000 g ai/ha, 0 to 100 scale, 0 no effect, 100 complete control
[19] = Preemergence, 1000 g ai/ha, visual rating, 0 to 100 scale (0 no effect, 100 complete control)
[20] = preemergence, 250 g ai/ha, visual injury, 0 to 100 scale (0 no effect, 100 complete control)

Structure (SMILES): CCn1nc(C(C)(C)C)cc1C(=O)Nc1cccc(S(C)(=O)=O)c1 [Compound 133]
- Plant response rating, Barnyardgrass (barnyardgrass [1]; [15]): 60
- Barnyardgrass plant response rating (barnyardgrass [1]; 125 g ai/ha): 0
- Barnyardgrass plant response rating (barnyardgrass [1]; 500 g ai/ha): 40
- Plant response rating, Barnyardgrass (barnyardgrass [1]; [16]): 10
- Ducksalad plant response rating (ducksalad): 50
- Plant response rating, Pigweed (pigweed; [15]): 100
- Pigweed plant response rating (pigweed; 125 g ai/ha): 20
- Pigweed plant response rating (pigweed; 500 g ai/ha): 50
- Plant response rating, Pigweed (pigweed; [16]): 100
- Barnyardgrass plant response rating (barnyardgrass [2]): 20
- Plant response rating, Rice (rice [3]): 40
- Plant response rating, Surinam Grass (Surinam grass; [15]): 20
- Surinam Grass plant response rating (Surinam grass; 125 g ai/ha): 0
- Surinam Grass plant response rating (Surinam grass; 500 g ai/ha): 50
- Plant response rating, Surinam Grass (Surinam grass; [16]): 0
- Blackgrass plant response rating (blackgrass; 125 g ai/ha): 0
- Blackgrass plant response rating (blackgrass; 500 g ai/ha): 10
- Plant response rating, Lambsquarters (lambsquarters; [15]): 100
- Lambsquarters plant response rating (lambsquarters; 125 g ai/ha): 60
- Lambsquarters plant response rating (lambsquarters; 500 g ai/ha): 70
- Plant response rating, Lambsquarters (lambsquarters; [16]): 50
- Morningglory plant response rating (morningglory [4]; [17]): 10
- Plant response rating, Morningglory (morningglory [4]; [18]): 20
- Morningglory plant response rating (morningglory [4]; [19]): 0
- Morningglory plant response rating (morningglory [4]; [20]): 0
- Oat, Wild plant response rating (wild oat; 125 g ai/ha): 20
- Oat, Wild plant response rating (wild oat; 500 g ai/ha): 20
- Velvetleaf plant response rating (velvetleaf [5]; [17]): 10
- Plant response rating, Velvetleaf (velvetleaf [5]; [18]): 15
- Velvetleaf plant response rating (velvetleaf [5]; [19]): 35
- Velvetleaf plant response rating (velvetleaf [5]; [20]): 5
- Barnyardgrass plant response rating (barnyardgrass [6]; [17]): 20
- Plant response rating, Barnyardgrass (barnyardgrass [6]; [18]): 55
- Barnyardgrass plant response rating (barnyardgrass [6]; [19]): 45
- Barnyardgrass plant response rating (barnyardgrass [6]; [20]): 0
- Plant response rating, Foxtail, Giant (giant foxtail [7]; [15]): 40
- Foxtail, Giant plant response rating (giant foxtail [7]; 125 g ai/ha): 0
- Foxtail, Giant plant response rating (giant foxtail [7]; 500 g ai/ha): 20
- Plant response rating, Foxtail, Giant (giant foxtail [7]; [16]): 0
- Plant response rating, Velvetleaf (velvetleaf [8]; [15]): 70
- Velvetleaf plant response rating (velvetleaf [8]; 125 g ai/ha): 10
- Velvetleaf plant response rating (velvetleaf [8]; 500 g ai/ha): 50
- Plant response rating, Velvetleaf (velvetleaf [8]; [16]): 20
- Pigweed plant response rating (redroot pigweed; [17]): 30
- Plant response rating, Pigweed (redroot pigweed; [18]): 75
- Pigweed plant response rating (redroot pigweed; [19]): 65
- Pigweed plant response rating (redroot pigweed; [20]): 10
- Sedge, Umbrella plant response rating [9]: 40
- Plant response rating, Crabgrass, Large (large crabgrass [10]; [15]): 80
- Crabgrass, Large plant response rating (large crabgrass [10]; 125 g ai/ha): 10
- Crabgrass, Large plant response rating (large crabgrass [10]; 500 g ai/ha): 30
- Plant response rating, Crabgrass, Large (large crabgrass [10]; [16]): 20
- Foxtail, Giant plant response rating (giant foxtail [11]; [17]): 10
- Plant response rating, Foxtail, Giant (giant foxtail [11]; [18]): 20
- Foxtail, Giant plant response rating (giant foxtail [11]; [19]): 30
- Foxtail, Giant plant response rating (giant foxtail [11]; [20]): 0
- Rice plant response rating (rice [12]): 0
- Plant response rating, Cocklebur (cocklebur; [15]): 0
- Cocklebur plant response rating (cocklebur; 125 g ai/ha): 10
- Cocklebur plant response rating (cocklebur; 500 g ai/ha): 60
- Plant response rating, Cocklebur (cocklebur; [16]): 0
- Plant response rating, Morningglory (morningglory [13]; [15]): 10
- Morningglory plant response rating (morningglory [13]; 125 g ai/ha): 10
- Morningglory plant response rating (morningglory [13]; 500 g ai/ha): 20
- Plant response rating, Morningglory (morningglory [13]; [16]): 10
- Plant response rating, Corn (corn; [15]): 0
- Corn plant response rating (corn; 125 g ai/ha): 10
- Corn plant response rating (corn; 500 g ai/ha): 20
- Plant response rating, Corn (corn; [16]): 0
- Wheat plant response rating (wheat; 125 g ai/ha): 0
- Wheat plant response rating (wheat; 500 g ai/ha): 0
- Crabgrass, Large plant response rating (large crabgrass [14]; [17]): 10
- Plant response rating, Crabgrass, Large (large crabgrass [14]; [18]): 20
- Crabgrass, Large plant response rating (large crabgrass [14]; [19]): 80
- Crabgrass, Large plant response rating (large crabgrass [14]; [20]): 25
